These results are taken from ChEMBL document CHEMBL1129127, “Potent and selective PKC inhibitory 5-membered ring analogs of balanol with replacement of the carboxamide moiety” (Bioorg Med Chem Lett, 1996).

Assay [1] concerns the target T1, Protein kinase C beta type (Homo sapiens, UniProt P05771). Briefly: Inhibition of protein kinase C beta I.
Assay [2] deals with Protein kinase C delta type (Homo sapiens, UniProt Q05655). As to the kind of experiment: Inhibition of protein kinase C delta.
The target in assay [3] is Protein kinase C eta type (Homo sapiens, UniProt P24723). Briefly: Inhibition of protein kinase C eta.
Assay [4] deals with T2, Protein kinase C epsilon type (Homo sapiens, UniProt Q02156).
T2 sequence (Q02156 whole entry): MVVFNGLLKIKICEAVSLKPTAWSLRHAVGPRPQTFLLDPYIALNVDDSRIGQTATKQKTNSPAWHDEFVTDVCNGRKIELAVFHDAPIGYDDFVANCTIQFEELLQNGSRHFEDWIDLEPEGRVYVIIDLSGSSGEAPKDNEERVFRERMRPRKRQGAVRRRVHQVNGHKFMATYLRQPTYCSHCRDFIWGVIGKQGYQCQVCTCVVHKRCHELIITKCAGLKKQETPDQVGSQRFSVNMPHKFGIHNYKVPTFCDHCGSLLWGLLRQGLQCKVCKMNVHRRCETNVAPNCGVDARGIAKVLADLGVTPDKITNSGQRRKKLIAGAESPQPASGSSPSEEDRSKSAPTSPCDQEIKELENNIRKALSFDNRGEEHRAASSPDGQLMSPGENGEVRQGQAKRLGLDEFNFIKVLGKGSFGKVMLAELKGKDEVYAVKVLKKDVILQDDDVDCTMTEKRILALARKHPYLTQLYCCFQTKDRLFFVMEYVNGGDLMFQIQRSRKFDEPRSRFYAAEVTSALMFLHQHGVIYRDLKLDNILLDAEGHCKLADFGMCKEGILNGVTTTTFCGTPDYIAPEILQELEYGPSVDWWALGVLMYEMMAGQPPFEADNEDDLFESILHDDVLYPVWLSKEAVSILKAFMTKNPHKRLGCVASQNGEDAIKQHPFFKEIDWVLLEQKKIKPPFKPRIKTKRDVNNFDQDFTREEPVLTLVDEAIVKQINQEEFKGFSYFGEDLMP
As to the kind of experiment: Inhibition of protein kinase C epsilon.

In assay [5] the target is T1, Protein kinase C beta type. Briefly: Inhibition of protein kinase C beta II.
Assay [6] concerns the target Protein kinase C gamma type (Homo sapiens, UniProt P05129). Briefly: Inhibition of protein kinase C gamma.
A short description of assay [7]: Inhibition of protein kinase A.
In assay [8] the target is Protein kinase C alpha type (Homo sapiens, UniProt P17252). As to the kind of experiment: Inhibition of protein kinase C alpha.
The species entered for the next assay is Homo sapiens. As to the kind of experiment: Inhibition of cellular activity by neutrophil assay. Type of assay: functional.

Protein kinase C eta type, sequence (P24723 whole entry): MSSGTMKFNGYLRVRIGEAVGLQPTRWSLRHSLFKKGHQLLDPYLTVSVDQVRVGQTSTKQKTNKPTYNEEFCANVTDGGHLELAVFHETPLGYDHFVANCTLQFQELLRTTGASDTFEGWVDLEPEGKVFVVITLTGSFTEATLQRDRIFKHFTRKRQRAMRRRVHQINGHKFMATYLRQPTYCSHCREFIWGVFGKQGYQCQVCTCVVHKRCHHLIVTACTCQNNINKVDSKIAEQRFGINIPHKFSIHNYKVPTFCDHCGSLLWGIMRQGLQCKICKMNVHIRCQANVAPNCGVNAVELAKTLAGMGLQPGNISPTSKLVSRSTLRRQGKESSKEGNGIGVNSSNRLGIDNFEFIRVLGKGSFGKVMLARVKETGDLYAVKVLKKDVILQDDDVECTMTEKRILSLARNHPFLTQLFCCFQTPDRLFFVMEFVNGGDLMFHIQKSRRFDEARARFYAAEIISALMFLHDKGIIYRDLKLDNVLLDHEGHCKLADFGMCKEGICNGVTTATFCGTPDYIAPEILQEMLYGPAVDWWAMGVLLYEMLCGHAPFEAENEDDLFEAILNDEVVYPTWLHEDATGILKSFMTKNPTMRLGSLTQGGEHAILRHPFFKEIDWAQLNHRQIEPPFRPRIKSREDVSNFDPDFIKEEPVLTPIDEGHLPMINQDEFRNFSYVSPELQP
Protein kinase C delta type, sequence (Q05655 whole entry): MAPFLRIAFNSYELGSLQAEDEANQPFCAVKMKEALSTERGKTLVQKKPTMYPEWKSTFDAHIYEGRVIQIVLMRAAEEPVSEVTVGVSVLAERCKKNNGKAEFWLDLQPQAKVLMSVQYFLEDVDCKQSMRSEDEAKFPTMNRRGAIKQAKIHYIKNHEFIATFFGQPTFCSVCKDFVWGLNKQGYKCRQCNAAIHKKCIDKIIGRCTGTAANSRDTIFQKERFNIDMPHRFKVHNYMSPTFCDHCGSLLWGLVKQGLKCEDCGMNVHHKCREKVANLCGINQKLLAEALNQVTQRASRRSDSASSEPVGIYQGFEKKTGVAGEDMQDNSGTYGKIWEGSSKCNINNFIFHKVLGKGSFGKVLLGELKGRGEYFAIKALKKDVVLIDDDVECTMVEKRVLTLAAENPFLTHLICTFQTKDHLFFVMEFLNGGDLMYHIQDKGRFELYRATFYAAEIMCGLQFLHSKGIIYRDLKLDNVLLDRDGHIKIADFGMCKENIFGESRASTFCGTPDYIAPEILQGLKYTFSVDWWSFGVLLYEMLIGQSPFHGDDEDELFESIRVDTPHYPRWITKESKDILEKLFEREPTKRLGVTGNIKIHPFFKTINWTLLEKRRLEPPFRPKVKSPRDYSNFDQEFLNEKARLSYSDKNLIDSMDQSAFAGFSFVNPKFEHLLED
T1 sequence (P05771 whole entry): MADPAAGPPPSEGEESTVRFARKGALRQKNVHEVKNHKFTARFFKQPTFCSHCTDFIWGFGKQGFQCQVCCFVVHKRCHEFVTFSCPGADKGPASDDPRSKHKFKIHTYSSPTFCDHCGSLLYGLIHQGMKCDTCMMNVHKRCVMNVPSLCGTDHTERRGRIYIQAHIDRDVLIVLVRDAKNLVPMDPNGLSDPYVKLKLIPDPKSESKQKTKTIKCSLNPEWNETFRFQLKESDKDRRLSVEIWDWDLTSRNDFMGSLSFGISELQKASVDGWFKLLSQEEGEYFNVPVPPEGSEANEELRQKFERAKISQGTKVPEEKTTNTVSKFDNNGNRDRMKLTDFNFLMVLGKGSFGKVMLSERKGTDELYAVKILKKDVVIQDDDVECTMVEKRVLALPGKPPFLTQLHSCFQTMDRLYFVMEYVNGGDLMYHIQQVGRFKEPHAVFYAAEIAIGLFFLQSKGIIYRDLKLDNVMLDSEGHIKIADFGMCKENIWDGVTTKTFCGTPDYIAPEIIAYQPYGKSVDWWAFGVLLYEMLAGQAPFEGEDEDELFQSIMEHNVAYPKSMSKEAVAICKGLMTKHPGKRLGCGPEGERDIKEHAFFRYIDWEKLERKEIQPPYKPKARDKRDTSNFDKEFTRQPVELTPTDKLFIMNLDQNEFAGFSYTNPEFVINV

As to `O=C(NC1CNCC1OC(=O)c1cc(O)c(C(=O)c2c(O)cccc2C(=O)O)c(O)c1)c1ccc(O)cc1` (stereo not drawn), the IC50 (commonly the concentration that gives 50% inhibition) in [1] stood at 10 nM; in [2] it was 5 nM; in assay [3], 4 nM; in assay [4], 10 nM; in assay [5] it was 33 nM; in assay [6], 12 nM. Also, the figures for the IC50 (in assay [7]; in assay [8]; in the assay filed under Homo sapiens (Homo sapiens)) were 70 nM, 22 nM and more than 10000 nM, respectively.

In the case of `O=C(NC1CCCC1OC(=O)c1cc(O)c(C(=O)c2c(O)cccc2C(=O)O)c(O)c1)c1ccc(O)cc1` (stereo not drawn), the half-maximal inhibitory concentration (IC50) was 1 nM in [2], 1 nM in assay [3] and more than 10000 nM in the assay listed under Homo sapiens (Homo sapiens).

On to `O=C(NC1CNCCCC1OC(=O)c1cc(O)c(C(=O)c2c(O)cccc2C(=O)O)c(O)c1)c1ccc(O)cc1` (racemic), for which the figures for the half-maximal inhibitory concentration (IC50) (in assay [7]; in the assay listed under Homo sapiens (Homo sapiens)) were 60 nM and more than 10000 nM, respectively.

As for `O=C(OC1CNCC1Cc1ccc(O)cc1)c1cc(O)c(C(=O)c2c(O)cccc2C(=O)O)c(O)c1` (stereo not drawn), the IC50 in assay [2] is 5 nM; in [3], 20 nM; in [4], 1800 nM; in [6], 40 nM; in assay [7], 320 nM; in the assay listed under Homo sapiens (Homo sapiens), more than 10000 nM.

Turning to `O=C(OC1CCCC1Cc1ccc(O)cc1)c1cc(O)c(C(=O)c2c(O)cccc2C(=O)O)c(O)c1` (stereo in doubt; anti), the 50% inhibitory concentration (IC50) was more than 50000 nM in [7] and 3100 nM in the assay filed under Homo sapiens.

In turn, `COC(=O)c1cccc(O)c1C(=O)c1c(O)cc(C(=O)OC2CNCC2Cc2ccc(O)cc2)cc1O` (stereo not drawn) yielded a concentration for half-maximal inhibition (IC50) in assay [3] of 50 nM.

On to `O=C(NC1CNCCCC1OC(=O)c1cc(O)c(C(=O)c2c(O)cccc2C(=O)O)c(O)c1)c1ccc(O)cc1` (single isomer, unassigned; (-)), for which the IC50 in assay [1] was 10 nM; in assay [2] it was 16 nM; in assay [3], 3 nM; in assay [5], 10 nM; in assay [6], 10 nM; in assay [7], 40 nM. The compound further displayed an IC50 in [8] of 30 nM.

`O=C(OC1CCCC1Cc1ccc(O)cc1)c1cc(O)c(C(=O)c2c(O)cccc2C(=O)O)c(O)c1` (stereo in doubt; syn) came in with an IC50 in the assay listed under Homo sapiens of 10000 nM.

In turn, `O=C(OC1CCCC1Oc1ccc(O)cc1)c1cc(O)c(C(=O)c2c(O)cccc2C(=O)O)c(O)c1` (stereo not drawn) showed an IC50 in assay [7] of 50000 nM. This lies in the double-digit micromolar range.

`COC(=O)c1cccc(O)c1C(=O)c1c(O)cc(C(=O)OC2CCCC2Cc2ccc(O)cc2)cc1O` (stereo not drawn) returned a 50% inhibitory concentration (IC50) in [7] of more than 50000 nM.
